This assay concerns miRNA contained in exosomes secreted from C2C12 cells. The settings on record: exosomes from β-alanine-treated C2C12 cells vs control; microarray; FIG. 4. Here is the method:
In this example, miRNAs in exosomes were analyzed by microarray.
The exosome solution purified in Example 2 was used for microarray analysis. The microarray experiment was outsourced to Kamakura Techno Science (Kanagawa, Japan). Based on the data obtained, samples with a ratio of 1.5 or more compared to the control and one of the signal values of two samples exceeding 100 were extracted as miRNAs with altered transcription levels.

Regarding `NCCC(=O)O` [β-alanine], the “number of miRNAs decreased” value is recorded as 14 and the “number of miRNAs increased” value is “six”.
